Converted amounts (≈) assume the structure as drawn. Where two headings read alike, the source gives them in different places.
Tests used:
[1] = system: multi-drug resistant (MDR) lung carcinoma cell line H69/LX4; assay: cells; conditions: for INCREASED SENSITIVITY H69/Lx4: Table VIII, values equal IC50 NONE / IC50 with VB 25 ng/ml of Table VII, 10080 min
Protocol: The riminophenazines of the above formula (I), contain an imino group. […] The potency of compounds of the above general formula, as inhibitors of multi-drug resistance, was assessed by sensitization of a P-glycoprotein positive cell line to drugs associated with this form of resistance. A human small cell lung cancer cell line H 69/P as well as a multi-drug resistance (MDR) sub-line H69/LX4 were used. These cell lines were obtained from the Medical Research Council Clinical Oncology and Radiotherapeutics Unit, Hills Road, Cambridge, England. The H69/LX4 line was selected in vitro by progressive exposure to increasing concentrations of doxorubicin in order to increase P-glycoprotein expression.
The cell lines used were human small cell lung cancer cell line HP69/P and a multi-drug resistant (MDR) sub-line H69/LX4, both of which were supplied by the MRC Clinical Oncology and Radiotherapeutics Unit, Hills Road, Cambridge, England. The maintenance of the cell lines and drug response assays was done as described by Twentyman et al in British Journal of Cancer Volume 65 pages 335-340. The H69/LX4 line was originally described by Twentyman et al in British Journal of Cancer Volume 53, pages 529-637 (1986).
The data in parenthesis represents fold sensitivity compared with the chemotherapeutic agent without the MDR inhibitor.
The results obtained, are illustrated graphically in FIGS. 4 to 7 of the accompanying drawings.
(§1) The general procedure set forth above was followed, i.e. 7 days incubation in the4 presence of doxorubicin at 12,5 ng/ml or vinblastine at 25 or 3 ng/ml.
(§2) The effects were examined over a seven (7) day exposure to different concentrations of B4119 and B4125 on the sensitivity of a doxorubicin resistant leukaemia cell line (K562/MMB) and a lung carcinoma cell line (H69/LX4) to doxorubicin (dox) and vinblastine (VB) using the MTT assay.

[2] = system: MDR leukaemia cell line K562/MMB; assay: cells; conditions: for INCREASED SENSITIVITY K 562/MMB: Table VIII, values equal IC50 NONE / IC50 with VB 3 ng/ml of Table VII, 10080 min; for MDR activity / sensitivity against cell line K562/MMP: compared with known reference compound B4100
Protocol: A third cell line (562/MMB) used was a MDR leukemia cell line selected in vitro by progressive exposure to increasing concentrations of vinblastine in order to increase P-glycoprotein expression. This cell line was developed in the Department of Immunology, University of Pretoria from K562 (ATCC CCL 243) supplied by Highveld Biological (Pty) Ltd, Sandton.
as §1, §2

[3] = Homo sapiens, 168 h, read-out: IC 50 H69/Lx4 NONE
[4] = Homo sapiens, read-out: IC 50 H69/Lx4 DOX 12 ng/ml
[5] = Homo sapiens, read-out: IC 50 H69/Lx4 VB 25 ng/ml
[6] = Homo sapiens, K562, read-out: IC 50 K562/MMB VB 3 ng/ml, Table VII, with vinblastine 3 ng/ml
[7] = Homo sapiens, K562, 168 h, read-out: IC 50 K562/MMB NONE, Table VII, riminophenazine alone, 7 day
[8] = Homo sapiens, K562, read-out: IC 50 K562/MMB DOX 12 ng/ml, Table VII, with doxorubicin 12 ng/ml

| SMILES | IC50 [1, 3] | IC50 [1, 4] | IC50 [1, 5] | INCREASED SENSITIVITY H69/Lx4 [1] | INCREASED SENSITIVITY K 562/MMB [2] | other results |
| --- | --- | --- | --- | --- | --- | --- |
| CC1(C)CC(N=c2cc3n(-c4ccccc4)c4ccccc4nc-3cc2Nc2ccccc2)CC(C)(C)N1 [Compound B3962, N,5-bis(phenyl)-3,5-dihydro-3-[(2',2',6',6'-tetramethyl-4-piperidyl)imino]-2-phenazinamine] | 0.563 µg/mL (≈ 1.12 µM) | 0.427 µg/mL (≈ 0.851 µM) | 0.262 µg/mL (≈ 0.522 µM) | 2.15 | 4.07 |  |
| CC1(C)CC(N=c2cc3n(-c4cccc(Cl)c4)c4ccc(Cl)cc4nc-3cc2Nc2cccc(Cl)c2)CC(C)(C)N1 [Compound B4123, N,5-bis(3-chlorophenyl)-8-chloro-3,5-dihydro-3[(2',2',6',6'-tetramethyl-4-piperidyl)-imino]-2-phenazinamine] | 1.18 µg/mL (≈ 1.94 µM) | 1.02 µg/mL (≈ 1.69 µM) | 0.251 µg/mL (≈ 0.415 µM) | 4.69 | 6.80 | IC50 [2, 6]: 0.049 µg/mL (≈ 0.081 µM); MDR activity / sensitivity against cell line K562/MMP [2]: exceptionally good activity |
| Cc1ccc(Nc2cc3nc4ccccc4n(-c4ccc(C)cc4)c-3cc2=NC2CC(C)(C)NC(C)(C)C2)cc1 [Compound B4070, N,5-bis(4-methylphenyl)-3,5-dihydro-3-[(2',2',6',6'-tetramethyl-4-piperidyl)imino]-2-phenazinamine] | 0.525 µg/mL (≈ 0.991 µM) | 0.312 µg/mL (≈ 0.589 µM) | 0.2 µg/mL (≈ 0.378 µM) | 2.63 | 2.94 | IC50 [2, 7]: 0.159 µg/mL (≈ 0.3 µM); IC50 ([2]; Homo sapiens, K562, 168 h, read-out: IC 50 of riminophenazine, Doxorubicin, Table IV, K562/MMB, with doxorubicin 12 ng/ml, 7 day): 0.193 µg/mL (≈ 0.364 µM); IC50 ([2]; Homo sapiens, K562, 168 h, read-out: IC 50 of riminophenazine, None, Table IV, K562/MMB, riminophenazine alone, 7 day, mean of 2 experiments): 0.159 µg/mL (≈ 0.3 µM); IC50 ([2]; Homo sapiens, K562, 168 h, read-out: IC 50 of riminophenazine, Vinblastine, Table IV, K562/MMB, with vinblastine 3 ng/ml, 7 day): 0.054 µg/mL (≈ 0.102 µM); IC50 [2, 8]: 0.193 µg/mL (≈ 0.364 µM); IC50 [2, 6]: 0.054 µg/mL (≈ 0.102 µM) |
| COc1cccc2c1C(=O)c1c(O)c3c(c(O)c1C2=O)C[C@@](O)(C(=O)CO)C[C@@H]3O[C@H]1C[C@H](N)[C@H](O)[C@H](C)O1 [Doxorubicin, reference compound] |  |  |  |  |  | cytotoxicity at 0.0125 µg/mL ([1]; Homo sapiens, 168 h, read-out: cytotoxic activity of chemotherapeutic agent at the concentration used with the riminophenazine): < 10%; cytotoxicity at 0.0125 µg/mL ([2]; Homo sapiens, K562, 168 h, read-out: cytotoxic activity of chemotherapeutic agent at the concentration used with the riminophenazine): < 10% |
| CC1(C)CC(N=c2cc3n(-c4ccc(Cl)cc4Cl)c4ccccc4nc-3cc2Nc2ccc(Cl)cc2Cl)CC(C)(C)N1 [Compound B4128, N,5-bis(2,4-dichiorophenyl)-3,5-dihydro-3-[(2',2',6',6'-tetramethyl-4-piperidyl)-imino]-2-phenazinamine] | 1.23 µg/mL (≈ 1.92 µM) | 0.782 µg/mL (≈ 1.22 µM) | 0.434 µg/mL (≈ 0.679 µM) | 2.82 | 6.49 | MDR activity / sensitivity against cell line K562/MMP [2]: increased substantially and unexpectedly |
| CCN(CC)CCCN=c1cc2n(-c3ccc(Cl)c(Cl)c3)c3ccccc3nc-2cc1Nc1ccc(Cl)c(Cl)c1 [Compound B4154] | 1.33 µg/mL (≈ 2.17 µM) | 0.648 µg/mL (≈ 1.06 µM) | 0.378 µg/mL (≈ 0.616 µM) | 3.52 | 2.99 |  |
| COc1ccc(Nc2cc3nc4ccccc4n(-c4ccc(OC)cc4)c-3cc2=NC2CC(C)(C)NC(C)(C)C2)cc1 [Compound B4174, N,5-bis(4-methoxyphenyl)-3,5-dihydro-3-[(2',2',6',6'-tetramethyl-4-piperidyl)-imino]-2-phenazinamine] | 0.462 µg/mL (≈ 0.822 µM) | 0.587 µg/mL (≈ 1.04 µM) | 0.535 µg/mL (≈ 0.952 µM) | 0.86 | 1.78 |  |
| CC1(C)CC(N=c2cc3n(-c4cccc(C(F)(F)F)c4)c4ccc(Cl)cc4nc-3cc2Nc2cccc(C(F)(F)F)c2)CC(C)(C)N1 [Compound B4127, N,5-bis(3-trifluoromethylphenyl)-8-chloro-3,5-dihydro-3-[(2',2',6',6'-tetramethyl-4-piperidyl)-imino]-2-phenazinamine] | 1.32 µg/mL (≈ 1.97 µM) | 1.31 µg/mL (≈ 1.95 µM) | 0.454 µg/mL (≈ 0.675 µM) | 2.91 | 6.07 |  |
| CC1(C)CC(N=c2cc3n(-c4ccc(Cl)c(C(F)(F)F)c4)c4ccccc4nc-3cc2Nc2ccc(Cl)c(C(F)(F)F)c2)CC(C)(C)N1 [Compound B4163, N,5-bis[(3-trifluoromethyl)-4-chlorophenyl]-3,5-dihydro-3-[(2',2',6',6'-tetramethylpiperidyl)-imino]-2-phenazinamine] | 0.972 µg/mL (≈ 1.38 µM) | 0.846 µg/mL (≈ 1.2 µM) | 0.281 µg/mL (≈ 0.398 µM) | 3.46 | 10.63 | IC50 [2, 6]: 0.032 µg/mL (≈ 0.0453 µM); MDR activity / sensitivity against cell line K562/MMP [2]: increased substantially and unexpectedly |
| CC1(C)CC(N=c2cc3n(-c4ccc(OC(F)(F)F)cc4)c4ccccc4nc-3cc2Nc2ccc(OC(F)(F)F)cc2)CC(C)(C)N1 [Compound B4177, N,5-bis(4-trifluoromethoxyphenyl)-3,5-dihydro-3-[(2',2',6',6'-tetramethyl-4-piperidyl)-imino)-2-phenazinamine] | 0.6 µg/mL (≈ 0.896 µM) | 0.852 µg/mL (≈ 1.27 µM) | 0.056 µg/mL (≈ 0.0836 µM) | 10.71 |  | MDR activity against the cell line H69/LX4 [1]: very good activity |
| CC1(C)CC(N=c2cc3n(-c4ccccc4)c4ccc(Cl)cc4nc-3cc2Nc2ccccc2)CC(C)(C)N1 [Compound B4019] | 1.03 µg/mL (≈ 1.92 µM) | 0.771 µg/mL (≈ 1.44 µM) | 0.488 µg/mL (≈ 0.91 µM) | 2.11 |  |  |
| CO[C@@]12[C@H](COC(N)=O)C3=C(C(=O)C(C)=C(N)C3=O)N1C[C@@H]1N[C@@H]12 [Mitomycin C, reference compound] |  |  |  |  |  | IC50 ([1]; Homo sapiens, 168 h, read-out: IC50 of chemotherapeutic agent, MDR inhibitor None): 0.1 µg/mL (≈ 0.299 µM) |
| CC1(C)CC(N=c2cc3n(-c4ccc(C(F)(F)F)cc4C(F)(F)F)c4ccccc4nc-3cc2Nc2ccc(C(F)(F)F)cc2C(F)(F)F)CC(C)(C)N1 [Compound B4178, N,5-bis(2,4-di-trifluoromethyl-phenyl)-3,5-dihydro-3-[(2',2',6',6'-tetramethylpiperidyl)-imino]phenazinamine] | 0.785 µg/mL (≈ 1.01 µM) | 0.521 µg/mL (≈ 0.673 µM) | 0.399 µg/mL (≈ 0.516 µM) | 1.97 | 6.03 | IC50 [2, 7]: 1.02 µg/mL (≈ 1.32 µM); IC50 [2, 8]: 0.919 µg/mL (≈ 1.19 µM); IC50 [2, 6]: 0.199 µg/mL (≈ 0.257 µM) |
| CC1(C)CC(N=c2cc3n(-c4ccc(Cl)c(Cl)c4)c4ccccc4nc-3cc2Nc2ccc(Cl)c(Cl)c2)CC(C)(C)N1 [Compound B4100, reference compound] | 0.798 µg/mL (≈ 1.25 µM) | 0.582 µg/mL (≈ 0.91 µM) | 0.125 µg/mL (≈ 0.195 µM) | 6.38 | 3.53 |  |
| CC1(C)CC(N=c2cc3n(-c4ccc(Cl)cc4)c4ccc(Cl)cc4nc-3cc2Nc2ccc(Cl)cc2)CC(C)(C)N1 [Compound B4090] | 1.5 µg/mL (≈ 2.48 µM) | 1.01 µg/mL (≈ 1.66 µM) | 0.266 µg/mL (≈ 0.44 µM) | 5.64 | 7.30 | IC50 [2, 6]: 0.027 µg/mL (≈ 0.0446 µM); MDR activity / sensitivity against cell line K562/MMP [2]: exceptionally good activity |
| CC(C)c1ccc(Nc2cc3nc4cc(Cl)ccc4n(-c4ccc(C(C)C)cc4)c-3cc2=NC2CC(C)(C)NC(C)(C)C2)cc1 [Compound B4159, N,5-bis(4-isopropylphenyl)-8-chloro-3,5-dihydro-3-[(2',2',6',6'-tetramethyl-4-piperidyl)-imino]-2-phenazinamine] | 1.55 µg/mL (≈ 2.5 µM) | 1.09 µg/mL (≈ 1.76 µM) | 0.268 µg/mL (≈ 0.432 µM) | 5.79 | 7.02 | MDR activity / sensitivity against cell line K562/MMP [2]: exceptionally good activity |
| CC1(C)CC(N=c2cc3n(-c4ccc(Cl)cc4)c4ccccc4nc-3cc2Nc2ccc(Cl)cc2)CC(C)(C)N1 [Compound B3786] | 0.608 µg/mL (≈ 1.07 µM) | 0.597 µg/mL (≈ 1.05 µM) | 0.169 µg/mL (≈ 0.296 µM) | 3.60 |  |  |

Source: patent US5763443A, “MDR resistance treatment and novel pharmaceutically active riminophenazines” (priority 1994, dated 1998)
